Measurements taken from patent US20030066102A1, “Plant gene for p-hydroxyphenylpyruvate dioxygenase” (priority 1996, published 2003).

Legend:
[1] = molecular target: T1, Plant p-Hydroxyphenylpyruvate Dioxygenase (Arabidopsis enzyme overexpressed in E. coli) (Arabidopsis thaliana, UniProt P93836); test: 14CO2 release assay from 14C-p-hydroxyphenylpyruvate with overexpressed protein; type: biochemical
T1 construct: The first 11 cycles identified […]; initiator Met (ATG start codon put in front of Ser30 by oligos CAM32/CAM33) (N, cleaved yes); made in house; host or cells: E. coli BL21(DE3) carrying pE24CP1 (pET24c(+) backbone), IPTG-induced; cell extract
T1 sequence (P93836 30-445): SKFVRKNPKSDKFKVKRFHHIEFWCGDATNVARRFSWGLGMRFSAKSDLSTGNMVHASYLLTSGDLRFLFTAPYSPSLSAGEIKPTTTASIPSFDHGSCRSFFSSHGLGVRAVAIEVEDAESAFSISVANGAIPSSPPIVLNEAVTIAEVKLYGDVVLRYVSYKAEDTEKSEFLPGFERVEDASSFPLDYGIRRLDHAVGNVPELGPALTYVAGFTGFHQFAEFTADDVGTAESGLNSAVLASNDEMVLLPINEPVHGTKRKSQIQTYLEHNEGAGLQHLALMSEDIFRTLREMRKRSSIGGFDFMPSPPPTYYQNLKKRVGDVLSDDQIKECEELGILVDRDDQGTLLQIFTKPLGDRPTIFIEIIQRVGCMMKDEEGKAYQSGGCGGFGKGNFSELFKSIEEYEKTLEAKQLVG
Experimental: Cell cultures with different plasmid constructs were extracted as described above and assayed by measuring the formation of ^14Co2 from [1-^14C]-p-hydroxyphenylpyruvate or ^14CO2 and ^14C-homogentisate from [U-^14C]-p-hydroxyphenylpyruvate (Lindblad, B., (1971) Clin. Chim. Acta 34:113-121; and Lindstedt, S. and Odelhog, B., (1987) Methods in Enzymology 142:143-148). The labeled substrate was prepared from [1-^14C]-L-tyrosine (55 mCi/mmol; American Radiolabeled Chemicals, Inc., St. Louis, Mo.) or [U-^14C]-L-tyrosine (498 mCi/mmol; DuPont NEN, Boston, Mass.). […]
The assay was performed in 14 mL culture tubes capped with serum stoppers through which a polypropylene well containing 200 μL of 1 N KOH was suspended. […] Six mL of Formula-989 scintillation fluid (Packard Insturments, Meriden, Conn.) was added to the vials and the ^14C radioactivity was determined by scintillation counting.
The enzymatic activity of the overexpressed protein is inhibited by two herbicides known to inhibit plant p-hydroxyphenylpyruvate dioxygenase: Sulcotrione (2-(2-chloro-4-methanesulfonylbenzoyl)-1,3-cyclohexanedione); and Isoxaflutole (5-cyclopropylisoxazol-4-yl 2-mesyl-4-trifluoromethylphenyl ketone). […] The I50 values (concentration inhibiting the enzyme 50%) were calculated based on the percent inhibition observed over several concentrations of the inhibitor.

[2] = molecular target: T1, Plant p-Hydroxyphenylpyruvate Dioxygenase (Arabidopsis enzyme overexpressed in E. coli); test: continuous spectrophotometric enol borate-tautomerase assay with overexpressed protein; type: biochemical
Experimental: The overexpressed protein was also assayed spectrophotometrically at ambient temperature using the enol borate-tautomerase assay (Lin, E. C. C. et al., (1958) J. Biol. Chem. 233:668-673). The assay buffer contained 0.4 M borate (adjusted to pH 7.2 with 0.2 M sodium borate), 4 mM ascorbate, 2.5 mM EDTA, 40 μM p-hydroxyphenylpyruvate, and 0.5 units of tautomerase (Sigma T-6004) per 10 mL buffer. The reaction mix was used when the tautomerization of the substrate was complete (when absorbance at 308 nm had stabilized). The assay was initiated by adding 40 μL of the cell extracts to 960 μL of the assay buffer, and the reaction was followed by measuring the decrease in absorbance at 308 nm.
The enzymatic activity of the overexpressed protein is inhibited by two herbicides known to inhibit plant p-hydroxyphenylpyruvate dioxygenase: Sulcotrione (2-(2-chloro-4-methanesulfonylbenzoyl)-1,3-cyclohexanedione); and Isoxaflutole (5-cyclopropylisoxazol-4-yl 2-mesyl-4-trifluoromethylphenyl ketone). These two compounds were tested against the overexpressed protein using both the ^14CO2 and the continuous spectrophotometric enol borate-tautomerase assays. Both compounds were added to the assay buffers in 10 μL of acetone or dimethyl sulfoxide. The I50 values (concentration inhibiting the enzyme 50%) were calculated based on the percent inhibition observed over several concentrations of the inhibitor.

[3] = storage stability of purified enzyme constructs, activity by tautomerase coupled spectrophotometric assay; type: physicochemical, Arabidopsis thaliana; conditions: 1 mg/mL in 20 mM bis tris-propane buffer pH 7.2, 5 mM ascorbate, 1 mM reduced glutathione, 0.1 mM ferrous ammonium sulfate, stored at 4 °C
From the text: Two different constructs for Arabidopsis thaliana p-hydroxyphenyl-pyruvate dioxygenase, one containing the full-length sequence, PDO-B as described in Example 5 and produced from plasmid pE24PDO-B, and one containing the truncated sequence lacking the putative chloroplast leader sequence, PDO-A as produced from plasmid pE24CP1, were both purified to the same extent using a Pharmacia phenyl Sepharose hydrophobic interaction column followed by gel filtration chromatography on Pharmacia Sephacryl 300. The two proteins were diluted to 1 mg/mL in 20 mM bis tris-propane buffer, pH 7.2 containing 5 mM ascorbate, 1 mM reduced glutathione and 0.1mM ferrous ammonium sulfate and stored in a refrigerator at 4 ° C. for up to 10 days. Aliquots were removed at various times and assayed for activity using the tautomerase coupled spectrophotometric assay. […] In addition, the activity of the full length enzyme could be restored by incubation with iron and reducing agent, reduced glutathione or ascorbate, or by dialysis against buffer containing iron and reducing agent. In contrast, the activity of the truncated enzyme could not be restored by incubation with or dialysis against buffer containing iron and reducing agent.

## CS(=O)(=O)c1cc(C(F)(F)F)ccc1C(=O)c1cnoc1C1CC1 [isoxaflutole, 5-cyclopropylisoxazol-4-yl 2-mesyl-4-trifluoromethylphenyl ketone]
[1]; concentration inhibiting the enzyme 50%, inhibitor added in 10 μL acetone or dimethyl sulfoxide, read-out: I50 value derived from 14CO2 assay
  IC50: 409 nM
[2]; concentration inhibiting the enzyme 50%, absorbance at 308 nm, read-out: I50 value derived from spectrophotometric assay
  IC50: 1040 nM

## CS(=O)(=O)c1ccc(C(=O)C2C(=O)CCCC2=O)c(Cl)c1 [sulcotrione, 2-(2-chloro-4-methanesulfonylbenzoyl)-1,3-cyclohexanedione]
[1]
  IC50: 43 nM
[2]
  IC50: 44 nM

B1: PDO-B: full-length Arabidopsis thaliana p-hydroxyphenylpyruvate dioxygenase produced from plasmid pE24PDO-B (protein, UniProt P93836 1-445, looked up)
chain: MGHQNAAVSENQNHDDGAASSPGFKLVGFSKFVRKNPKSDKFKVKRFHHIEFWCGDATNVARRFSWGLGMRFSAKSDLSTGNMVHASYLLTSGDLRFLFTAPYSPSLSAGEIKPTTTASIPSFDHGSCRSFFSSHGLGVRAVAIEVEDAESAFSISVANGAIPSSPPIVLNEAVTIAEVKLYGDVVLRYVSYKAEDTEKSEFLPGFERVEDASSFPLDYGIRRLDHAVGNVPELGPALTYVAGFTGFHQFAEFTADDVGTAESGLNSAVLASNDEMVLLPINEPVHGTKRKSQIQTYLEHNEGAGLQHLALMSEDIFRTLREMRKRSSIGGFDFMPSPPPTYYQNLKKRVGDVLSDDQIKECEELGILVDRDDQGTLLQIFTKPLGDRPTIFIEIIQRVGCMMKDEEGKAYQSGGCGGFGKGNFSELFKSIEEYEKTLEAKQLVG
modifications: full-length
[3]
  half-life for the activity: 96 h
